Data taken from patent publication US10179782B2, “Substituted sulfonamide compounds” (Genentech, Inc., priority 2016, dated 2019).

molecular target: T1, human TRPA1 (Homo sapiens, UniProt O75762); assay: TRPA1 FLIPR Tetra calcium influx assay in CHO cells (block of cinnamaldehyde-induced calcium influx); format: cell-based; conditions: Table 1; CHO cells expressing TRPA1; agonist cinnamaldehyde 75 uM; with vs without substituent at R2/R3; read-out: hTRPA1 CHO Ca2+ AUC EVO (IC50)
T1 construct: expressed in transfected cells; host or cells: CHO cells
Protocol: IC50s (effective concentration) of compounds on the human and rat TRPA1 channels were determined using a FLIPR Tetra instrument. CHO cells expressing TRPA1 were plated into 384-well plates, incubated overnight at 37 C, and loaded with BD calcium indicator dye for 1 hr at 37° C. followed by 15 minutes at room temperature. The assay buffer was Hank's Balanced Salt Solution (HBSS) containing 20 mM HEPES (pH readjusted to 7.4) along with 0.02% BSA.
Following dye load and plate cool down, compounds were added to the cells using FLIPR Tetra. Plates were then incubated with compounds for 20 minutes at room temperature prior to adding agonist. Following this incubation, ˜EC80 concentration of cinnamaldehyde (75 uM for human TRPA1 and 45 uM for rat TRPA1) was added to active the channels and block of cinnamaldehyde induced calcium influx was measured.
IC50s were fit with a standard Hill function, keeping the Hill coefficient (n) fixed to 1.5. Fixing the Hill coefficient will generally reduce variability of the IC50 determination. The IC50s were individually examined to make sure the MIN and MAX points were set correctly prior to validation of the results.

T1 sequence (O75762 whole entry): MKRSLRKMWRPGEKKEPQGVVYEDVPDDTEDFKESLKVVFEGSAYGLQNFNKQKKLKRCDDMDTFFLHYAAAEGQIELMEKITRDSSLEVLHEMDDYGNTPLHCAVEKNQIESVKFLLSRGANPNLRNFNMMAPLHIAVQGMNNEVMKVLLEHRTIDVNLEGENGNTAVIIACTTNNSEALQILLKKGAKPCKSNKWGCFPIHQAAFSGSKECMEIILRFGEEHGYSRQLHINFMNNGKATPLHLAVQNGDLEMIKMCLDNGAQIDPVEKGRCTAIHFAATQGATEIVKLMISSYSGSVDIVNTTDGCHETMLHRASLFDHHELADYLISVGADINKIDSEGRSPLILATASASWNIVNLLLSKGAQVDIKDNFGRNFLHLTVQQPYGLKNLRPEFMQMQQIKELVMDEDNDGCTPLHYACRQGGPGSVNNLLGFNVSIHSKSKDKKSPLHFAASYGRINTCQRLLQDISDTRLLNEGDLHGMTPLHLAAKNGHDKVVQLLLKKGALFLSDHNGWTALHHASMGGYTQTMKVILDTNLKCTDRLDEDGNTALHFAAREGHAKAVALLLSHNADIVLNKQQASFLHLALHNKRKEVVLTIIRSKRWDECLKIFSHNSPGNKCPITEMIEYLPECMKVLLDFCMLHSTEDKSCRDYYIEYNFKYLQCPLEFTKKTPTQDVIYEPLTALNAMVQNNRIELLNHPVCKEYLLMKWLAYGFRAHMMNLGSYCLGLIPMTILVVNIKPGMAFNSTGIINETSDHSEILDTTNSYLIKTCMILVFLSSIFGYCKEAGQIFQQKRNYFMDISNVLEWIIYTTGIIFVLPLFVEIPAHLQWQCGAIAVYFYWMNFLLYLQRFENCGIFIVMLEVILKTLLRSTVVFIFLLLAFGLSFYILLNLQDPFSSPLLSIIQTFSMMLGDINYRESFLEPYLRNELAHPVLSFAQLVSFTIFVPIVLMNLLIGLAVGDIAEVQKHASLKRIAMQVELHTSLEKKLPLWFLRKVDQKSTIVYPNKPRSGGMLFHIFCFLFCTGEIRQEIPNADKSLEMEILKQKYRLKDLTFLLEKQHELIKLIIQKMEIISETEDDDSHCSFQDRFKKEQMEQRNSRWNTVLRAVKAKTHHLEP

Structure (SMILES)	IC50 [nM]
O=C(NCc1cc(-c2cnc(C(F)(F)F)nc2)ncc1F)[C@@H]1C[C@@H](F)CN1S(=O)(=O)c1ccc(F)cc1 [(2S,4R)-4-fluoro-1-(4-fluorophenyl)sulfonyl-N-[[5-fluoro-2-[2-(trifluoromethyl)pyrimidin-5-yl]-4-pyridyl]methyl]pyrrolidine-2-carboxamide, reference compound]	26.7

same assay, conditions: Table 2; CHO cells expressing TRPA1; agonist cinnamaldehyde 75 uM; 20 min compound incubation; Hill coefficient fixed to 1.5; read-out: hTRPA1 CHO Ca2+ AUC EVO (IC50)

Structure (SMILES)	IC50 [nM]
C[C@H]1[C@H](F)C[C@@H](C(=O)NCc2cnc(C(F)(F)F)c(-c3cnc(C(F)(F)F)nc3)c2)N1S(=O)(=O)c1ccc(F)cc1 [Example 109, (2S,4R,5S)-4-fluoro-1-(4-fluorophenyl)sulfonyl-5-methyl-N-[[6-(trifluoromethyl)-5-[2-(trifluoromethyl)pyrimidin-5-yl]-3-pyridyl]methyl]pyrrolidine-2-carboxamide]	16.9
C[C@H]1[C@H](F)C[C@@H](C(=O)NCc2cc(-c3cnc(C(F)(F)F)nc3)c(OC(F)F)cn2)N1S(=O)(=O)c1ccc(F)cc1 [Example 146, (2S,4R,5S)-N-[[5-(difluoromethoxy)-4-[2-(trifluoromethyl)pyrimidin-5-yl]-2-pyridyl]methyl]-4-fluoro-1-(4-fluorophenyl)sulfonyl-5-methyl-pyrrolidine-2-carboxamide]	35
C[C@H]1[C@H](F)C[C@@H](C(=O)NCc2cc(-c3cnc(C(F)(F)F)nc3)nc(N3CCC3)n2)N1S(=O)(=O)c1ccc(F)cc1 [Example 42, (2S,4R,5S)-N-((2-(azetidin-1-yl)-2′-(trifluoromethyl)-4,5′-bipyrimidin-6-yl)methyl)-4-fluoro-1-(4-fluorophenylsulfonyl)-5-methylpyrrolidine-2-carboxamide]	21.9
C[C@H]1[C@H](F)C[C@@H](C(=O)NCc2cc(N3CC(OC(F)(F)F)C3)nc(C3CC3)n2)N1S(=O)(=O)c1ccc(F)cc1 [Example 81, (2S,4R,5S)-N-[[2-cyclopropyl-6-[3-(trifluoromethoxy)azetidin-1-yl]pyrimidin-4-yl]methyl]-4-fluoro-1-(4-fluorophenyl)sulfonyl-5-methyl-pyrrolidine-2-carboxamide]	55.3
O=C(NCc1cc(-c2cnc(C(F)(F)F)nc2)ncn1)[C@@H]1CCC2(CC2)N1S(=O)(=O)c1ccc(F)cc1 [Example 4, (5S)-4-[(4-fluorobenzene)sulfonyl]-N-([6-[2-(trifluoromethyl)pyrimidin-5-yl]pyrimidin-4-yl]methyl)-4-azaspiro[2.4]heptane-5-carboxamide]	71.2
O=C(NCc1cc(-c2cnc(C(F)(F)F)nc2)cc(F)c1F)[C@@H]1C[C@@H](F)CN1S(=O)(=O)c1ccc(F)cc1 [Example 76, (2S,4R)-N-[[2,3-difluoro-5-[2-(trifluoromethyl)pyrimidin-5-yl]phenyl]methyl]-4-fluoro-1-(4-fluorophenyl)sulfonyl-pyrrolidine-2-carboxamide]	39.3
O=C(NCc1cc(-c2cnc(C(F)(F)F)nc2)nc(C2CC2)n1)[C@@H]1C[C@@H](F)CN1S(=O)(=O)c1ccc(F)cc1 [Example 73, (2S,4R)-N-[[2-cyclopropyl-6-[2-(trifluoromethyl)pyrimidin-5-yl]pyrimidin-4-yl]methyl]-4-fluoro-1-(4-fluorophenyl)sulfonyl-pyrrolidine-2-carboxamide]	56.7
C[C@H]1[C@H](F)C[C@@H](C(=O)NCc2cc(-c3cnc(C(F)(F)F)nc3)ncc2C#N)N1S(=O)(=O)c1ccc(F)cc1 [Example 51, (2S,4R,5S)-N-[[5-cyano-2-[2-(trifluoromethyl)pyrimidin-5-yl]-4-pyridyl]methyl]-4-fluoro-1-(4-fluorophenyl)sulfonyl-5-methyl-pyrrolidine-2-carboxamide]	15.5
C[C@H]1[C@H](F)C[C@@H](C(=O)NCc2cc(-c3cnc(C(F)(F)F)nc3)nc(C3CC3)n2)N1S(=O)(=O)c1ccc(F)cc1 [Example 37, (2S,4R,5S)-N-([2-cyclopropyl-6-[2-(trifluoromethyl)pyrimidin-5-yl]pyrimidin-4-yl]methyl)-4-fluoro-1-[(4-fluorobenzene)sulfonyl]-5-methylpyrrolidine-2-carboxamide]	5.4
CC1(C)[C@@H]2[C@@H](C(=O)NCc3cc(-c4cnc(C(F)(F)F)nc4)ncc3F)N(S(=O)(=O)c3ccc(F)cc3)C[C@@H]21 [Example 72, (1S,4S,5R)-3-(4-fluorophenyl)sulfonyl-N-[[5-fluoro-2-[2-(trifluoromethyl)pyrimidin-5-yl]-4-pyridyl]methyl]-6,6-dimethyl-3-azabicyclo[3.1.0]hexane-4-carboxamide]	14.7
C[C@H]1[C@H](F)C[C@@H](C(=O)NCc2cc(-c3cnc(C(F)(F)F)nc3)nc(C(F)(F)F)n2)N1S(=O)(=O)c1ccc(F)cc1 [Example 108, (2S,4R,5S)-4-fluoro-1-(4-fluorophenyl)sulfonyl-5-methyl-N-[[2-(trifluoromethyl)-6-[2-(trifluoromethyl)pyrimidin-5-yl]pyrimidin-4-yl]methyl]pyrrolidine-2-carboxamide]	2
O=C(NCc1cc(-c2cnc(C(F)(F)F)nc2)ncc1F)[C@H]1[C@@H]2C[C@@H]2CN1S(=O)(=O)c1ccc(F)cc1 (stereo in doubt) [Example 79, (1S,4R,5R)-3-(4-fluorophenyl)sulfonyl-N-[[5-fluoro-2-[2-(trifluoromethyl)pyrimidin-5-yl]-4-pyridyl]methyl]-3-azabicyclo[3.1.0]hexane-4-carboxamide]	14.6
C[C@H]1[C@H](F)C[C@@H](C(=O)NCc2ccc(F)c(-c3cnc(C(F)(F)F)nc3)c2)N1S(=O)(=O)c1ccc(F)cc1 [Example 43, (2S,4R,5S)-4-fluoro-N-(4-fluoro-3-(2-(trifluoromethyl)pyrimidin-5-yl)benzyl)-1-(4-fluorophenylsulfonyl)-5-methylpyrrolidine-2-carboxamide]	9.39
C[C@H]1[C@H](F)C[C@@H](C(=O)NCc2cc(-c3cnc(C(F)(F)F)nc3)ncc2F)N1S(=O)(=O)c1ccncc1 [Example 39, (2S,4R,5S)-4-fluoro-N-((5-fluoro-2-(2-(trifluoromethyl)pyrimidin-5-yl)pyridin-4-yl)methyl)-5-methyl-1-(pyridin-4-ylsulfonyl)pyrrolidine-2-carboxamide]	630
O=C(NCc1cc(-c2cnc(C(F)(F)F)nc2)ncn1)[C@H]1CC[C@@H](C(F)(F)F)N1S(=O)(=O)c1ccc(F)cc1 [Example 22, (2R,5S)-1-(4-fluorophenyl)sulfonyl-5-(trifluoromethyl)-N-[[6-[2-(trifluoromethyl)pyrimidin-5-yl]pyrimidin-4-yl]methyl]pyrrolidine-2-carboxamide]	3610
C[C@H]1[C@H](F)C[C@@H](C(=O)NCc2cc([C@H]3CC[C@@H](C(F)(F)F)CC3)ncc2F)N1S(=O)(=O)c1ccc(F)cc1 [Example 54, (2S,4R,5S)-4-fluoro-1-(4-fluorophenyl)sulfonyl-N-[[5-fluoro-2-[4-(trifluoromethyl)cyclohexyl]-4-pyridyl]methyl]-5-methyl-pyrrolidine-2-carboxamide]	6.38
C[C@H]1[C@H](F)C[C@@H](C(=O)NCc2cc(-c3cnc(C(F)(F)F)nc3)c(C(F)F)cn2)N1S(=O)(=O)c1ccc(F)cc1 [Example 133, (2S,4R,5S)-N-[[5-(difluoromethyl)-4-[2-(trifluoromethyl)pyrimidin-5-yl]-2-pyridyl]methyl]-4-fluoro-1-(4-fluorophenyl)sulfonyl-5-methyl-pyrrolidine-2-carboxamide]	30.5
O=C(NCc1cc(-c2cnc(C(F)(F)F)nc2)ncc1F)[C@@H]1C[C@@H]2C[C@@H]2N1S(=O)(=O)c1ccc(F)cc1 [Example 15, (1S,3S,5S)-2-(4-fluorophenyl)sulfonyl-N-[[5-fluoro-2-[2-(trifluoromethyl)pyrimidin-5-yl]-4-pyridyl]methyl]-2-azabicyclo[3.1.0]hexane-3-carboxamide]	0.6
CCc1cc(CNC(=O)[C@@H]2C[C@@H](F)CN2S(=O)(=O)c2ccc(F)cc2)cc(-c2cnc(C(F)(F)F)nc2)n1 [Example 66, (2S,4R)-N-[[2-ethyl-6-[2-(trifluoromethyl)pyrimidin-5-yl]-4-pyridyl]methyl]-4-fluoro-1-(4-fluorophenyl)sulfonyl-pyrrolidine-2-carboxamide]	76.9
C[C@H]1[C@H](F)C[C@@H](C(=O)NCc2cc(-c3cnc(C(F)(F)F)s3)ncn2)N1S(=O)(=O)c1ccc(F)cc1 [Example 56, (2S,4R,5S)-4-fluoro-1-(4-fluorophenyl)sulfonyl-5-methyl-N-[[6-[2-(trifluoromethyl)thiazol-5-yl]pyrimidin-4-yl]methyl]pyrrolidine-2-carboxamide]	66.9
O=C(NCc1cc(-c2cnc(C(F)(F)F)nc2)ncc1C(F)(F)F)[C@@H]1[C@H]2C[C@H]2CN1S(=O)(=O)c1ccc(F)cc1 [Example 149, (1S,2S,5R)-3-(4-fluorophenyl)sulfonyl-N-[[5-(trifluoromethyl)-2-[2-(trifluoromethyl)pyrimidin-5-yl]-4-pyridyl]methyl]-3-azabicyclo[3.1.0]hexane-2-carboxamide]	0.756
C[C@H]1[C@H](F)C[C@@H](C(=O)NCc2cc(-c3cnc(C(F)(F)F)nc3)cnc2C(F)(F)F)N1S(=O)(=O)c1ccc(F)cc1 [Example 152, (2S,4R,5S)-4-fluoro-1-(4-fluorophenyl)sulfonyl-5-methyl-N-[[2-(trifluoromethyl)-5-[2-(trifluoromethyl)pyrimidin-5-yl]-3-pyridyl]methyl]pyrrolidine-2-carboxamide]	3.03
